The values that follow come from PubChem BioAssay AID1645848.

Values after ≈ are worked out from the molar mass of the structure shown. A value given as a limit tells only on which side of the number the result lay.

For the data set the following is noted: buffer; pH 7.4; 6.0 h; 150.0 µM.

`Cc1cc(F)c(C(=O)Nc2cccc(-c3nncn3C(C)C)n2)cc1-n1cnc(C2CC2)c1` displayed a solubility (kinetic) of 49.8 µg/mL (≈ 112 µM). As for `CCc1ccc2ncc(C(=O)c3ccc(C)c(C)c3)c(N3CCC(C(N)=O)CC3)c2c1`, the solubility (kinetic) was found to be 2.27 µg/mL (≈ 5.47 µM).

On to `O=C(O)c1ccnc(-c2cc(C(=O)NCCc3ccccc3)ccn2)c1`, for which the kinetic solubility was more than 51 µg/mL. The result for `Cc1ccc(S(=O)(=O)Nc2ccc(C(=O)Nc3nc(-c4ccccc4)cs3)c(Cl)c2)cc1` reads less than 1 µg/mL; that for `O=C(Nc1ccc(S(=O)(=O)Nc2nccs2)cc1)c1ccnc(-c2ccccc2)c1`, 15.6 µg/mL (≈ 35.8 µM); that for `Cc1cc(-c2nnc3n2CCCCC3)c(C)n1-c1cccnc1`, 32.5 µg/mL (≈ 106 µM).

`COc1ccc(Nc2cc3c(nc2OC)nc(CCc2ccccc2)n3C)cn1`: the kinetic solubility is 22.4 µg/mL (≈ 57.5 µM). The result for `Cc1ccc(-n2nc(C)c3c(-c4ccc(O)c(O)c4)c(C#N)c(N)nc32)cc1C` reads 1.81 µg/mL (≈ 4.7 µM). Next, `O=C(Nc1ccc2oc(-c3ccncc3)nc2c1)c1ccccc1Cl`: less than 1 µg/mL; `Cc1cc(-c2nc(Nc3ccc(F)c(F)c3)c3ccccc3n2)cc(C)n1`: less than 1 µg/mL; `Cc1cc(-c2nnc3n2CCCCC3)c(C)n1-c1ccc(Cl)cc1`: 25.9 µg/mL (≈ 75.9 µM). In turn, `COc1ccc(OC)c(CNc2ncnc3onc(C)c23)c1` had a solubility (kinetic) of more than 44 µg/mL. Take `NC(=O)C1CCN(c2nc(-c3ccc4ccccc4c3)cs2)CC1`: the solubility (kinetic) came to 3.67 µg/mL (≈ 10.9 µM). Next, `COc1ccc(NC(C)=O)cc1S(=O)(=O)Nc1ccc(Br)cc1`: 32.7 µg/mL (≈ 81.9 µM); `Cc1ccc(S(=O)(=O)Nc2ccccc2C(=O)Nc2ccc(-c3ccccc3)nn2)cc1`: less than 1 µg/mL. As for `Cc1cccc(C)c1Nc1c(-c2ccccn2)nc2ccc(Cl)cn12`, the kinetic solubility is less than 1 µg/mL. Next, `CC(=O)N1CCc2c(sc3c2c(=O)n(-c2ccccc2)c(=O)n3CC(=O)c2ccccc2)C1`: 3.53 µg/mL (≈ 7.69 µM); `O=S(=O)(Nc1nccs1)c1ccc(NCc2cc(Cl)ccc2O)cc1`: 37.2 µg/mL (≈ 94 µM). Next, `Cc1nc(-c2ccccc2)cc([C@H]2CN3CC[C@H]2C[C@@H]3CNC2CCOCC2)n1`: more than 58 µg/mL. Consider `O=C(c1ccc2c(c1)ncn2-c1ccc(C(F)(F)F)cc1)N1CCCCC1`, for which the solubility (kinetic) was more than 55 µg/mL. Next, `NC(=O)C1CCN(c2nccc(-c3ccc4c(c3)OCCO4)n2)CC1`: more than 50 µg/mL. `N=c1c2c(ncn1-c1ccccc1)Oc1ccc3ccccc3c1C2c1ccc2c(c1)CCO2` (stereo not given): the solubility (kinetic) worked out at 2 µg/mL (≈ 4.5 µM). Next, `CCOC(=O)N1CCN(C(=O)Cn2sc3nc(C)cc(C)c3c2=O)CC1`: 39 µg/mL (≈ 103 µM); `CCOc1ccc(CCNC(=O)c2cc3sccc3n2Cc2ccccc2)cc1OCC`: less than 1 µg/mL.

The compound `Cc1cc(/C=C2/C(=O)Nc3ccccc32)cc(C)c1O` registered a solubility (kinetic) of less than 1 µg/mL. In turn, `Cc1nc(Nc2n[nH]c3c2CN(C(=O)N[C@H](CN(C)C)c2ccccc2)C3(C)C)c2sccc2n1` had a solubility (kinetic) of more than 72 µg/mL. `CC1CN(c2ccc(Nc3nc(-c4ccncc4)nc4ccccc34)cc2F)CC(C)O1` (stereo not given) registered a kinetic solubility of less than 1 µg/mL. Compound `Oc1ccc(CNc2cccc(F)c2F)c2cccnc12` came in with a kinetic solubility of less than 1 µg/mL.

`O=[S+]([O-])(Nc1ccc(C2CCNCC2)cc1)c1ccc(NCc2ccc(Cl)cc2O)cc1` showed a solubility (kinetic) of 23.9 µg/mL (≈ 50.6 µM). Next, `C[C@@H]1Cc2c([nH]c3cc(Cl)c(F)cc23)[C@]2(N1)C(=O)Nc1ccc(Cl)cc12`: 13.3 µg/mL (≈ 34.1 µM); `Cc1noc(C)c1-c1cc(-c2ccc3c(c2)C(=O)NC3)cn2cncc12`: more than 76 µg/mL; `COc1ccccc1N1CCN(CCN(C(=O)c2ccc(F)cc2)c2ccccn2)CC1`: more than 64 µg/mL. Next, `CCN(CC)CCCNC(=O)c1oc2c(c1C)-c1nn(Cc3ccc(Cl)cc3)cc1CC2`: more than 67 µg/mL. As to `Cc1cc(-c2nnc3n2CCCCC3)c(C)n1-c1ccccc1`, the kinetic solubility was more than 45 µg/mL. The result for `O=C(CCCc1ccc2cccnc2n1)NCc1cc(-c2ccc(F)c(C(F)(F)F)c2)no1` reads 3.29 µg/mL (≈ 7.18 µM).

By solubility (kinetic) is commonly meant the concentration staying in solution when a stock, usually in DMSO, is diluted into the medium.
